This note sets out measurements from patent publication US10946024B2, “Method for treating cancer” (Epizyme, Inc., priority 2014, dated 2021).

The structures appear in SMILES notation.

Series [1] concerns H3K27me3 in HS-SY-II xenograft. Briefly: H3K27me3 in tumor of HS-SY-II xenograft, 7 days twice daily oral dosing (ELISA). The following applies: for H3K27me3 in tumor, Mean 2 (fold change to vehicle) / H3K27me3 in tumor, Mean Diff. vehicle vs. treated: 7 days; for H3K27me3 in tumor, Dunnett's test Significant?: alpha 0.05. Format: in vivo, mice. The method, then: (§1) HS-SY-II cells were harvested during mid-log phase growth, and resuspended in Hank balanced salt solution with 50% Matrigel (BD Biosciences). Balb/C-nu mice (Charles River Laboratories Japan) received 1×10^7 cells (0.1 mL cell suspension) subcutaneously in the right flank. Mice carrying tumors of approximately 200 mm^3 (31 days after injection) were sorted into treatment groups with similar mean tumor volumes. Compound A or vehicle (0.5% MC+0.1% Tween-80 in water) was administered at the indicated doses on twice a day for 7 days by oral gavage. Each dose was delivered in a volume of 0.2 mL/20 g mouse (10 mL/kg), and adjusted for the last recorded weight of individual animals. Peripheral blood samples were collected at approximately 5 minutes before and 3 hours after the last dose from Compound A-treated mice. After obtaining plasma samples by centrifugation, the analysis for plasma concentrations of Compound A was conducted by the liquid chromatography-tandem mass spectrometry (LC/MS/MS) method. The UPLC system (Acquity, Waters) equipped with a mass spectrometer (Quattro premier, MICROMASS) was used for quantification of Compound A. The concentrations are plotted (n=5) in FIG. 7A. Each bar represents a mean of plasma concentration in each group.
For FIG. 10D, tumors were snap-frozen in liquid nitrogen. Frozen tumor samples were cut into a 20 mg pieces and placed in 500 μL of ice cold nuclear extraction buffer (10 mM Tris-HCl, 10 mM MgCl2, 25 mM KCl, 1% Triton X-100, 8.6% Sucrose, plus 1× Halt Protease inhibitor cocktail (1861281, Thermo Scientific)) and homogenized with a handy micro homogenizer. Nuclei were collected by centrifugation at 600 g for 5 minutes at 4° C. and washed once with ice cold PBS. Supernatant was removed and histones extracted for one hour with […] 0.4 N cold sulfuric acid. Extracts were clarified by centrifugation at 10,000 g for 10 minutes at 4° C. and transferred to a fresh microcentrifuge tube containing 1 mL of ice cold acetone. Histones were precipitated at −20° C. for overnight, pelleted by centrifugation at 10,000 g for 10 minutes and resuspended in 100 μl of water. Histones were quantified using the BCA protein assay (23225, Pierce). The diluted histones were coated on Immulon 4HBX plates (3855, Thermo Scientific) overnight and ELISA was performed. Briefly, after blocking with PBS containing 0.05% Tween 20 and 2% bovine serum albumin (BSA), the plates were incubated with H3K27me3 antibody (#9733, Cell Signaling Technology) or total histone H3 antibody (AB1791, Abcam). The plates were further incubated with horseradish peroxidase conjugated anti-rabbit IgG (#7074, Cell Signaling Technology), followed by incubated with TMB substrate (TMBS-0100-01, BioFx Laboratories). Subsequently, the developed colors in the wells were measured using a plate spectrophotometer (SpectraMax 250, Molecular Devices) at 450 nm (reference wavelength 650 nm). The H3K27me3 levels were adjusted to total histone H3, and expressed as fold changes to vehicle control. The values are plotted (n=6) in FIG. 10D. Each bar represents a mean of the values in each group. […] Histones were extracted and quantified, and the levels of H3K27me3 were analyzed as described above. Trimethylation levels of H3K27 in the tumor are plotted (n=5) in FIG. 7B. Each bar represents a mean±SEM of the trimethylation level in each group.

The nature of series [2]: Plasma concentrations in HS-SY-II xenograft model (LC/MS/MS). The series is classed as in vivo, mice. The settings on record: oral twice daily for 7 days; 5 minutes before and 3 hours after the last dose. How it is done: as §1
In series [3] the test system is H3K27me3/total H3 in HS-SY-II cells. Kind of series: H3K27 methylation alterations by ELISA of extracted histones. The series is classed as cell-based, human. The following applies: 96 hours. The method, then:
(§2) HS-SY-II and SW982 cells were treated with either DMSO or Compound A starting at 40 nmol/L and decreasing in fourfold dilutions for 96 hours. Cells were washed by ice cold PBS, harvested by cell scraper, and lysed with 100 μl of nuclear extraction buffer (10 mM Tris-HCl, 10 mM MgCl2, 25 mM KCl, 1% Triton X-100, 8.6% Sucrose, plus 1× Halt Protease inhibitor cocktail (1861281, Thermo Scientific). Nuclei were collected by centrifugation at 600 g for 5 minutes at 4° C. and washed once with ice cold PBS. Supernatant was removed and histones extracted for one hour with 100 μL of 0.4 N cold sulfuric acid. Extracts were clarified by centrifugation at 10,000 g for 10 minutes at 4° C. and transferred to a fresh microcentrifuge tube containing 1 mL of ice cold acetone. Histones were precipitated at −20° C. for overnight, pelleted by centrifugation at 10,000 g for 10 minutes and resuspended in 100 μl of water. Histones were quantified using the BCA protein assay (23225, Pierce). […] Subsequently, the developed colors in the wells were measured using a plate spectrophotometer (SpectraMax 250, Molecular Devices) at 450 nm (reference wavelength 650 nm). The H3K27me3 levels were adjusted to total histone H3, and expressed as fold changes to DMSO control.
(§3) The range of IC50 values (two independent experiments), shown in FIG. 6B, were determined by GraphPad Prism (GraphPad Software).
On the technique in general: In an ELISA, binding on a coated surface is turned into a signal by an enzyme label.

The subject of series [4] is H3K27me3/total H3 in SW982 cells. Described as above. The series is classed as cell-based, human. The following applies: SW982, 96 hours. The method, then:
as §2, §3

For `CCN(c1cc(-c2ccc(CN3CCOCC3)cc2)cc(C(=O)NCc2c(C)cc(C)[nH]c2=O)c1C)C1CCOCC1` [Compound A], the “H3K27me3 in tumor, Dunnett's test Summary” value in series [1] (125 mg/kg), in series [1] (250 mg/kg) and in series [1] (500 mg/kg) was “* * *” in each case. Further, the “H3K27me3 in tumor, Mean 2 (fold change to vehicle)” value in series [1] (125 mg/kg oral twice daily) turned out to be 0.7; in series [1] (250 mg/kg oral twice daily) it was 0.55; in series [1] (500 mg/kg oral twice daily), 0.304. Also, the “H3K27me3 in tumor, Mean Diff. vehicle vs. treated” value in series [1] (125 mg/kg oral twice daily) worked out at 0.3; in series [1] (250 mg/kg oral twice daily), 0.45; in series [1] (500 mg/kg oral twice daily), 0.696. In addition, the “H3K27me3 in tumor, Dunnett's test Significant?” value in series [1] (125 mg/kg), in series [1] (250 mg/kg) and in series [1] (500 mg/kg) was “Yes” in each case. Moreover, the “H3K27me3 levels in tumor tissues” value in series [1] (oral twice daily for 7 days) was “dose dependent decrease”. For the same molecule, the plasma concentrations result in series [2] is listed as “Dose dependent exposure”. Further, the “ratio of H3K27me3/total H3 (ratio to control)” value in series [3] and in series [4] was “decreased ratios” throughout.
